# Source: patent US20080021067A1, “Methods For The Treatment Of Substance Abuse And Addiction” (priority 2004, published 2008)
# “Also recorded” adds a separate entry of the source.
# Experiments:
# hMC3R [1] = target: T1, hMC3R (Homo sapiens, UniProt P41968); test: Membrane binding assay, 125I-NDP-alpha-MSH competition; settings: ratio IC50 MC-3R / IC50 MC-4R
# T1 construct: expressed in transfected cells; host or cells: CHO- or L-cells or other eukaryotic cells
# Description: (§1) The membrane binding assay was used to identify competitive inhibitors of ^125I-NDP-alpha-MSH binding to cloned human MCRs expressed in mouse L- or Chinese hamster ovary (CHO)-cells.
# (§2) Cell lines expressing melanocortin receptors were grown in T-180 flasks containing selective medium of the composition: 1 L Dulbecco's modified Eagles Medium (DMEM) with 4.5 g L-glucose, 25 mM Hepes, without sodium pyruvate, (Gibco/BRl); 100 ml 10% heat-inactivated fetal bovine serum (Sigma); 10 mL 10,000 unit/mL penicillin & 10,000 μg/mL streptomycin (Gibco/BRl); 10 ml 200 mM L-glutamine (Gibco/BRl); 1 mg/mL geneticin (G418) (Gibco/BRl). The cells were grown at 37° C. with CO2 and humidity control until the desired cell density and cell number was obtained.
# (§3) The medium was poured off and 10 mls/T-180 flask of enzyme-free dissociation media (Specialty Media Inc.) was added. The cells were incubated at 37° C. for 10 min or until cells sloughed off when flask was banged against hand.
# (§4) The cells were harvested into 200 mL centrifuge tubes and spun at 1000 rpm, 4° C., for 10 min. […]
# (§5) The mixture was filtered with Packard Microplate 196 filter apparatus using Packard Unifilter 96-well GF/C filter with 0.1% polyethyleneimine (Sigma). […] The top was sealed and the radioactivity quantitated in a Packard Topcount Microplate Scintillation counter.
# hMC5R [2] = target: T2, hMC5R (Homo sapiens, UniProt P33032); test: as above; settings: ratio IC50 MC-5R / IC50 MC-4R
# T2 construct: expressed in transfected cells; host or cells: CHO- or L-cells or other eukaryotic cells
# Description: as §1, §2, §3, §4, §5
# hMC1bR = hMC1bR (Homo sapiens, UniProt Q01726); test: cAMP functional assay (agonist); type: cell-based; settings: selective functional activity
# Description: (§6) Cells (for example, CHO- or L-cells or other eukaryotic cells) expressing a human melanocortin receptor (see e.g. Yang-Y K; Ollmann-M M; Wilson-B D; Dickinson-C; Yamada-T; Barsh-G S; Gantz-I; Mol-Endocrinol. 1997 March; 11(3): 274-80) were dissociated from tissue culture flasks by rinsing with Ca and Mg free phosphate buffered saline (14190-136, Life Technologies, Gaithersburg, Md.) and detached following 5 min incubation at 37° C. with enzyme free dissociation buffer (S-0,4-B, Specialty Media, Lavellette, N.J.). Cells were collected by centrifugation and resuspended in Earle's Balanced Salt Solution (14015-069, Life Technologies, Gaithersburg, Md.) with additions of 10 mM HEPES pH 7.5, 5 mM MgCl2, 1 mM glutamine and 1 mg/ml bovine serum albumin. Cells were counted and diluted to 1 to 5×10^6/mL. The phosphodiesterase inhibitor 3-isobutyl-1-methylxanthine was added to cells to 0.6 mM.
# (§7) Agonist Assay: Test compounds were diluted in dimethylsulfoxide (DMSO) (10^−5 to 10^−10 M) and 0.1 volume of compound solution was added to 0.9 volumes of cell suspension; the final DMSO concentration was […]. After room temperature incubation for 45 min, cells were lysed by incubation at 100° C. for 5 min to release accumulated cAMP.
# (§8) cAMP was measured in an aliquot of the cell lysate with the Amersham (Arlington Heights, Ill.) cAMP detection assay (RPA556). The amount of cAMP production which resulted from an unknown compound was compared to that amount of cAMP produced in response to alpha-MSH which was defined as a 100% agonist. The EC50 is defined as the compound concentration which results in half maximal stimulation, when compared to its own maximal level of stimulation.
# hMC2R = target: T3, hMC2R (Homo sapiens, UniProt Q01718); test: cAMP functional assay (agonist); type: cell-based
# T3 construct: expressed in transfected cells; host or cells: CHO- or L-cells or other eukaryotic cells
# Description: as §6, §7, §8
# hMC3R [3] = target: T1, hMC3R; test: cAMP functional assay (agonist); type: cell-based
# Description: as §6, §7, §8
# hMC5R [4] = target: T2, hMC5R; test: cAMP functional assay (agonist); type: cell-based
# Description: as §6, §7, §8
# Male Wistar rats = test: Maintenance operant nicotine self-administration; type: in vivo, rat
# Description: Animals: Male Wistar rats were used in all experiments. Body weight was 180-200 g at the start of the experiments. Rats were housed 2-3 per cage with food and water available ad libitum. Lights were on a 12-hour light/dark cycle, with lights on at 0600. All procedures met the guidelines of the National Institutes of Health Guide for the Care and Use of Laboratory Animals.
# Operant Nicotine Self-Administration: Nicotine (Sigma Chemical Co., St. Louis, Mo.) was added to saline to achieve a concentration of 0.03 mg/ml. Standard operant chambers (Med Associates, VT) housed in sound-attenuated chambers were used for nicotine self-administration. Syringe pumps delivered nicotine via tygon tubing. The two retractable levers were located 12 cm apart and 4 cm above the floor. Fluid delivery and recording of operant responding were controlled by microcomputer. Rats were trained on a […] fixed-ratio 4 (FR4) schedule to self-administer nicotine (0.03 mg/ml, 0.1 ml per delivery) in 60 minute sessions. Once reliable levels of nicotine-reinforced self-administration were achieved, the effect of Compound A (0, and 20 mg/kg) on maintenance levels of responding was investigated.
# [5] = selective functional activity, 45 min
# T1 sequence (P41968 whole entry): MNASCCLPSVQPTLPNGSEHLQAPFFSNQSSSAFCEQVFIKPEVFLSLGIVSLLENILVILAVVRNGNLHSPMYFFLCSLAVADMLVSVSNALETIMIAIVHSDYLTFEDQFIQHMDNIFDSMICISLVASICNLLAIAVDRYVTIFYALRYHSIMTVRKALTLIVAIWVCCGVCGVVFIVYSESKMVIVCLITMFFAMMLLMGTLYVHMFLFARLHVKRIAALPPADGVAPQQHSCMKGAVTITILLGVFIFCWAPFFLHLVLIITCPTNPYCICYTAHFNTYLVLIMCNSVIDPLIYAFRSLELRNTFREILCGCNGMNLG
# T2 sequence (P33032 whole entry): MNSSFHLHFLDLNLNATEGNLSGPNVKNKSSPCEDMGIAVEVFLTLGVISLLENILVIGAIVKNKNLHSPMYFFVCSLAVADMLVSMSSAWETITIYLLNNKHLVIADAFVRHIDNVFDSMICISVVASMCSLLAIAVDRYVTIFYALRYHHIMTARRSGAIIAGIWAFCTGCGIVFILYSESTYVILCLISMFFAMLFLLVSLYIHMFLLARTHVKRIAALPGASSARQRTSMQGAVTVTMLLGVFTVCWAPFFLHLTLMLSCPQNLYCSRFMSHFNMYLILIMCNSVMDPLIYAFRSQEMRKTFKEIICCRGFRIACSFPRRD
# T3 sequence (Q01718 whole entry): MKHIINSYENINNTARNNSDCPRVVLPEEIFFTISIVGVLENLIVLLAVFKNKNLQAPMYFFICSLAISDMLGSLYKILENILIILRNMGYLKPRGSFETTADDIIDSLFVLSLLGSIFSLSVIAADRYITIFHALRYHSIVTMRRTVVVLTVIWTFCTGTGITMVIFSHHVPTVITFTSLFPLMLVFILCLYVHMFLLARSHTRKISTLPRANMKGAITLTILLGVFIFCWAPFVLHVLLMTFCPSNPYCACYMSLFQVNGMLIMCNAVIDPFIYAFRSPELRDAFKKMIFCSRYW
# hMC1bR, sequence (Q01726 whole entry): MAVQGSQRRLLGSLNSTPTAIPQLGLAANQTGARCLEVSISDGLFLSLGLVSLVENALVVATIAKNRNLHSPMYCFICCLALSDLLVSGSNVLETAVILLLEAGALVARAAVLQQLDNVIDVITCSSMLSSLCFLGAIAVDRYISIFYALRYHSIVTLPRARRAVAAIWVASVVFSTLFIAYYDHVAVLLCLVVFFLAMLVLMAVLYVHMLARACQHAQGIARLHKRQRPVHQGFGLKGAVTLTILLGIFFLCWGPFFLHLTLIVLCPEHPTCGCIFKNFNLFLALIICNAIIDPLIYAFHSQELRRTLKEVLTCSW
smiles,measurement,setting,value
CC[C@H](NC(C)=O)c1cc(Cl)ccc1C1CCN(C(=O)[C@@H]2CN(C(C)(C)C)C[C@H]2c2ccc(F)cc2F)CC1 [Compound A],Selectivity Binding IC50 3R/4R,hMC3R [1],163.6
same,Selectivity Binding IC50 5R/4R,hMC5R [2],36.36
same,EC50 for melanocortin 4 receptor lower than for melanocortin 1 receptor,hMC1bR,at least 120 fold
same,Selectivity cAMP EC50 2R/4R,hMC2R; ratio EC50 MC-2R / EC50 MC-4R,>714.2
same,EC50 for melanocortin 4 receptor lower than for melanocortin 2 receptor,hMC2R; [5],at least 700 fold
same,Selectivity cAMP EC50 3R/4R,hMC3R [3]; ratio EC50 MC-3R / EC50 MC-4R,65.71
same,EC50 for melanocortin 4 receptor lower than for melanocortin 3 receptor,hMC3R [3]; [5],at least 65 fold
same,Selectivity cAMP EC50 5R/4R,hMC5R [4]; ratio EC50 MC-5R / EC50 MC-4R,100
same,EC50 for melanocortin 4 receptor lower than for melanocortin 5 receptor,hMC5R [4]; [5],at least 100 fold
same,effect on maintenance levels of nicotine self-administration (nicotine infusions),"Male Wistar rats; 20 mg/kg po prior to testing, 60 minute session, vs baseline (p=0.0001)",significant reductions from baseline levels; also recorded: significant reduction
same,response rates on the alternate (non-drug reinforced) lever,"Male Wistar rats; Wistar rats, any dose tested (0, 20 mg/kg)",not significantly altered; also recorded: no significant effects
same,reduction of nicotine self administration,"Male Wistar rats; Wistar rats, pre-treatment, maintenance period of regular nicotine use",approximately 85%
